# Measurements published in patent US20240400555A1 (Initial Therapeutics, Inc., priority 2023, published 2024).
# Tested on: MV-4-11 cells
# Test: Cell Viability Assay in MV-4-11 Cells
# Format: cell-based
# Conditions: Homo sapiens, MV4-11, 72 h
# Method in brief: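 MV-4-11 cells at 7,000/well in IMDM with 10% FBS, exposed to compound for 72 h. Viability by CellTiter-Glo luminescence, normalized to DMSO as 100%, fitted with a four-parameter curve.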
row,Structure (SMILES),IC50 [nM]
1,"Cc1cccc2ccnc(N(C(=O)c3cccc(C#CCCC(=O)Nc4ccncc4)c3)[C@@H]3CCCNC3)c12 [Example 516, (R)—N-(8-methylisoquinolin-1-yl)-3-(5-oxo-5-(pyridin-4-ylamino)pent-1-yn-1-yl)-N-(piperidin-3-yl)benzamide]",750

# Same assay, conditions: Homo sapiens, MV4-11, 72 h, MV-4-11 cells, 72 h, Cell-Titer Glo; read-out: IC50
row,Structure (SMILES),IC50 [nM]
1,"Cc1cccc2ccnc(N(C(=O)c3ccc(Nc4nccc(N(C)CCC#N)n4)cc3F)[C@@H]3CCCNC3)c12 [Example 949, (R)-4-((4-((2-cyanoethyl)(methyl)amino)pyrimidin-2-yl)amino)-2-fluoro-N-(8-methylisoquinolin-1-yl)-N-(piperidin-3-yl)benzamide]",250
2,"O=C(c1ccc(-n2nnc3cccnc32)cc1F)N(c1nccc2sc(Cc3ccccc3)cc12)[C@@H]1CCCNC1 [Example 466, N-(2-benzylthieno[3,2-c]pyridin-4-yl)-2-fluoro-N-[(3R)-3-piperidyl]-4-(triazolo[4,5-b]pyridin-3-yl)benzamide]",440
3,"Cc1cc(-c2cnn(C)c2)cc2ccnc(N(C(=O)c3ccc(-c4cn(C)nn4)cc3F)[C@@H]3CCCNC3)c12 [Example 845, 2-fluoro-N-[8-methyl-6-(1-methylpyrazol-4-yl)-1-isoquinolyl]-4-(1-methyltriazol-4-yl)-N-[(3R)-3-piperidyl]benzamide]",69
4,"Cc1cccc2ccnc(N(C(=O)c3ccc(Nc4nccc(C(=O)O)n4)cc3F)[C@@H]3CCCNC3)c12 [Example 401, (R)-2-((3-fluoro-4-((8-methylisoquinolin-1-yl)(piperidin-3-yl)carbamoyl)phenyl)amino)pyrimidine-4-carboxylic acid]",> 10000
5,"Cn1cc(-c2ccc(C(=O)N(c3nccc4cc(C#N)ccc34)[C@@H]3CCCNC3)c(F)c2)nn1 [Example 472, (R)—N-(6-cyanoisoquinolin-1-yl)-2-fluoro-4-(1-methyl-1H-1,2,3-triazol-4-yl)-N-(piperidin-3-yl)benzamide]",580
6,"Cc1cccc2ccnc(N(C(=O)c3ccc(Nc4nccc(-c5ccc6[nH]ncc6c5)n4)cc3F)[C@@H]3CCCNC3)c12 [Example 932, (R)-4-((4-(1H-indazol-5-yl)pyrimidin-2-yl)amino)-2-fluoro-N-(8-methylisoquinolin-1-yl)-N-(piperidin-3-yl)benzamide]",20
7,"Cc1cccnc1N(C(=O)c1ccc(Nc2ncccn2)cc1)[C@@H]1CCCNC1 [Example 924, (R)—N-(3-methylpyridin-2-yl)-N-(piperidin-3-yl)-4-(pyrimidin-2-ylamino)benzamide]",85
8,"Cc1nnc(-c2ccc(C(=O)N(c3nccc4cccc(C)c34)[C@@H]3CCCNC3)c(F)c2)o1 [Example 394, (R)-2-fluoro-4-(5-methyl-1,3,4-oxadiazol-2-yl)-N-(8-methylisoquinolin-1-yl)-N-(piperidin-3-yl)benzamide]",140
9,"O=C(c1ccc(-n2nnc3cccnc32)cc1F)N(c1nccc2sc(Cc3cccnc3)cc12)[C@@H]1CCCNC1 [Example 465, 2-fluoro-N-[(3R)-3-piperidyl]-N-[2-(3-pyridylmethyl)thieno[3,2-c]pyridin-4-yl]-4-(triazolo[4,5-b]pyridin-3-yl)benzamide]",240
10,"O=C(c1ccc(-n2nnc3cccnc32)cc1F)N(c1nccc2sc(-c3ccncn3)cc12)[C@@H]1CCCNC1 [Example 456, 2-fluoro-N-[(3R)-3-piperidyl]-N-(2-pyrimidin-4-ylthieno[3,2-c]pyridin-4-yl)-4-(triazolo[4,5-b]pyridin-3-yl)benzamide]",380
11,"O=C(c1ccc(-n2nnc3cccnc32)cc1F)N(c1nccc2sc(-c3nccs3)cc12)[C@@H]1CCCNC1 [Example 417, 2-fluoro-N-[(3R)-3-piperidyl]-N-(2-thiazol-2-ylthieno[3,2-c]pyridin-4-yl)-4-(triazolo[4,5-b]pyridin-3-yl)benzamide]",390
12,"CNC(=O)c1nc(-c2cc3c(N(C(=O)c4ccc(-n5nnc6cccnc65)cc4F)[C@@H]4CCCNC4)nccc3s2)cs1 [Example 527, 4-[4-[[2-fluoro-4-(triazolo[4,5-b]pyridin-3-yl)benzoyl]-[(3R)-3-piperidyl]amino]thieno[3,2-c]pyridin-2-yl]-N-methyl-thiazole-2-carboxamide]",200
13,"[2H]C([2H])([2H])n1cc(-c2ccc(C(=O)N(c3nccc4cc(Cl)cc(C)c34)[C@@H]3CCCNC3)cc2)nn1 [Example 892, N-(6-chloro-8-methyl-1-isoquinolyl)-N-[(3R)-3-piperidyl]-4-[1-(trideuteriomethyl)triazol-4-yl] benzamide]",51
14,"CCc1csc2ccnc(N(C(=O)c3ccc(-c4nnc(C)s4)cc3F)[C@@H]3CCCNC3)c12 [Example 617, (R)—N-(3-ethylthieno[3,2-c]pyridin-4-yl)-2-fluoro-4-(5-methyl-1,3,4-thiadiazol-2-yl)-N-(piperidin-3-yl)benzamide]",540
15,"Cc1cccc2ccnc(N(C(=O)c3ccc(-c4nnc(C5CC5)s4)cc3F)[C@@H]3CCCNC3)c12 [Example 836, (R)-4-(5-cyclopropyl-1,3,4-thiadiazol-2-yl)-2-fluoro-N-(8-methylisoquinolin-1-yl)-N-(piperidin-3-yl)benzamide]",89
16,"Cn1cc(-c2ccc(C(=O)N(c3nccc4cc(Cl)ccc34)[C@@H]3CCCNC3)c(F)c2)nn1 [Example 470, N-(6-chloro-1-isoquinolyl)-2-fluoro-4-(1-methyltriazol-4-yl)-N-[(3R)-3-piperidyl]benzamide]",91
17,"O=C(c1ccc(Nc2ncccn2)cc1F)N(c1nccc2ccccc12)[C@@H]1CCCNC1 [Example 927, (R)-2-fluoro-N-(isoquinolin-1-yl)-N-(piperidin-3-yl)-4-(pyrimidin-2-ylamino)benzamide]",200
18,"CNc1cccnc1Nc1ccc(C(=O)N(c2nccc3cccc(C)c23)[C@@H]2CCCNC2)c(F)c1 [Example 726, (R)-2-fluoro-4-((3-(methylamino)pyridin-2-yl)amino)-N-(8-methylisoquinolin-1-yl)-N-(piperidin-3-yl)benzamide]",1900
19,"Cc1cccc2ccnc(N(C(=O)N3CCCC4(CCN(C(=O)OCc5ccccc5)CC4)C3)[C@@H]3CCCNC3)c12 [Example 342, benzyl (R)-2-((8-methylisoquinolin-1-yl)(piperidin-3-yl)carbamoyl)-2,9-diazaspiro [5.5]undecane-9-carboxylate]",2000
20,"O=C(c1ccc(-n2nnc3cccnc32)cc1)N(c1ncccc1Cl)[C@@H]1CCCNC1 [Example 305, (R)-4-(3H-[1,2,3]triazolo[4,5-b]pyridin-3-yl)-N-(3-chloropyridin-2-yl)-N-(piperidin-3-yl)benzamide]",1600
21,"O=C(c1ccc(-n2nnc3cccnc32)cc1F)N(c1nccc2sc(-c3ccc(CO)s3)cc12)[C@@H]1CCCNC1 [Example 426, 2-fluoro-N-[2-[5-(hydroxymethyl)-2-thienyl]thieno [3,2-c]pyridin-4-yl]-N-[(3R)-3-piperidyl]-4-(triazolo [4,5-b]pyridin-3-yl) benzamide]",160

# Continued, values first:
row,IC50 [nM],Structure (SMILES)
1,550,"Cc1cccc2ccnc(N(C(=O)N3CCC[C@@H](c4ccc(-n5cc6cccc(C(N)=O)c6n5)cc4)C3)[C@@H]3CCCNC3)c12 [Example 339, 2-(4-((S)-1-((8-methylisoquinolin-1-yl)((R)-piperidin-3-yl)carbamoyl)piperidin-3-yl)phenyl)-2H-indazole-7-carboxamide]"
2,107,"Cc1cccc2ccnc(N(C(=O)c3ccc(Nc4ncnc(-c5ccccc5)n4)cc3F)[C@@H]3CCCNC3)c12 [Example 971, (R)-2-fluoro-N-(8-methylisoquinolin-1-yl)-4-(4-phenyl-1,3,5-triazin-2-ylamino)-N-(piperidin-3-yl)benzamide]"
3,150,"Cc1cn(-c2ccc(C(=O)N(c3nccc4scc(C)c34)[C@@H]3CCCNC3)c(F)c2)nn1 [Example 690, (R)-2-fluoro-4-(4-methyl-1H-1,2,3-triazol-1-yl)-N-(3-methylthieno[3,2-c]pyridin-4-yl)-N-(piperidin-3-yl)benzamide]"
4,250,"O=C(c1ccc(-n2nnc3cccnc32)cc1F)N(c1nccc2sc(-c3ccccc3O)cc12)[C@@H]1CCCNC1 [Example 428, 2-fluoro-N-[2-(2-hydroxyphenyl)thieno[3,2-c]pyridin-4-yl]-N-[(3R)-3-piperidyl]-4-(triazolo[4,5-b]pyridin-3-yl)benzamide]"
5,250,"Cc1cccc2ccnc(N(C(=O)c3ccc(N(C)c4ncccn4)cc3F)[C@@H]3CCCNC3)c12 [Example 928, (R)-2-fluoro-4-(methyl(pyrimidin-2-yl)amino)-N-(8-methylisoquinolin-1-yl)-N-(piperidin-3-yl)benzamide]"
6,890,"Cc1cccc2ccnc(N(C(=O)c3cccc(C#CCCCCO)c3)[C@@H]3CCCNC3)c12 [Example 514, (R)-3-(6-hydroxyhex-1-yn-1-yl)-N-(8-methylisoquinolin-1-yl)-N-(piperidin-3-yl)benzamide]"
7,130,"Cc1cccc2ccnc(N(C(=O)c3ccc(Nc4ncc5ccsc5n4)cc3F)[C@@H]3CCCNC3)c12 [Example 823, (R)-2-fluoro-N-(8-methylisoquinolin-1-yl)-N-(piperidin-3-yl)-4-(thieno[2,3-d]pyrimidin-2-ylamino)benzamide]"
8,120,"Cc1csc2ccnc(N(C(=O)c3ccc(-c4cn(C)nn4)cn3)[C@@H]3CCCNC3)c12 [Example 811, (R)-5-(1-methyl-1H-1,2,3-triazol-4-yl)-N-(3-methylthieno[3,2-c]pyridin-4-yl)-N-(piperidin-3-yl)picolinamide]"
9,49,"Cc1cccc2ccnc(N(C(=O)c3ccc(Nc4nccc(C5=CCOCC5)n4)cc3F)[C@@H]3CCCNC3)c12 [Example 685, (R)-4-((4-(3,6-dihydro-2H-pyran-4-yl)pyrimidin-2-yl)amino)-2-fluoro-N-(8-methylisoquinolin-1-yl)-N-(piperidin-3-yl)benzamide]"
10,180,"CCc1nnc(-c2ccc(C(=O)N(c3nccc4cc(F)cc(C)c34)[C@@H]3CCCNC3)nc2)s1 [Example 672, (R)-5-(5-ethyl-1,3,4-thiadiazol-2-yl)-N-(6-fluoro-8-methylisoquinolin-1-yl)-N-(piperidin-3-yl)picolinamide]"
